In US9902728B2, “Pyrrolo and pyrazolopyrimidines as ubiquitin-specific protease 7 inhibitors” (Forma Therapeutics, Inc., priority 2014, dated 2018):

What follows are molecules tested against T1, USP7 (Homo sapiens, UniProt Q93009) (assay: USP7 Assay A (Ubitquin-Rhodamine 110 Assay)). Conditions: USP7 activity in USP7 assay A and B (table does not say which assay per compound); read-out: USP7_IC50.
T1 construct: USP7, construct USP7 (208-1102) 6*His, Viva Biotech; 6xHis (C); purchased Viva Biotech
T1 sequence (Q93009 208-1102): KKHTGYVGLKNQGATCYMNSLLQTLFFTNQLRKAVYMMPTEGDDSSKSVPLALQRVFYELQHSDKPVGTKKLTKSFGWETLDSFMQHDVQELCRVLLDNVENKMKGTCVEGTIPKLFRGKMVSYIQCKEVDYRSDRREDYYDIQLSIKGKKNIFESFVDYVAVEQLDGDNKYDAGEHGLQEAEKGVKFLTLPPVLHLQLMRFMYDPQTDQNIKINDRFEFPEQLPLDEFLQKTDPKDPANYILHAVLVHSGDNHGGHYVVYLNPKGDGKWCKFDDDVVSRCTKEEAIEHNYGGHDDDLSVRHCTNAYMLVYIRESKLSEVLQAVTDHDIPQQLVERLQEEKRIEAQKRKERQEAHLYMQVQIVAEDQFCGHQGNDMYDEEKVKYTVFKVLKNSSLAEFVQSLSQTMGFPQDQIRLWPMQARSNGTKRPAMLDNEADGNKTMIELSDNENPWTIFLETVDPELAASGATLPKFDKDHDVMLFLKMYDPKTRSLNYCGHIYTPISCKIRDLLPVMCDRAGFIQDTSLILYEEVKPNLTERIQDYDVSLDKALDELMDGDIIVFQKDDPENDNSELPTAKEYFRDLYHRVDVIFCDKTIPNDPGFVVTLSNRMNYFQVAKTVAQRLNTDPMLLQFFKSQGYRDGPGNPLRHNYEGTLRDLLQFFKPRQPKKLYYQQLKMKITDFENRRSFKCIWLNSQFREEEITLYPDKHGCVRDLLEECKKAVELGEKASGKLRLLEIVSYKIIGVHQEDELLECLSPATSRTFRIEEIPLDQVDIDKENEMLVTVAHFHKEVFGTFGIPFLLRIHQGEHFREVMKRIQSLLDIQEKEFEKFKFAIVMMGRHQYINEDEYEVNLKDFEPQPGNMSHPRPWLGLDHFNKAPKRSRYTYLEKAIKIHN
Type: biochemical
Description: Each assay was performed in a final volume of 15 μL in assay buffer containing 20 mM Tris-HCl (pH 8.0, (1M Tris-HCl, pH 8.0 solution; Corning 46-031-CM)), 1 mM GSH (L-Glutathione reduced; Sigma #G4251), 0.03% BGG ([…], Sigma, #G7516-25G), and 0.01% Triton X-100 (Sigma, #T9284-10L). […] 5 μL of 2× enzyme was added to assay plates (pre-stamped with compound) preincubated with USP7 for 30 minutes and then 5 μL of 2×Ub-Rh110 was added to assay plates. […] Fluorescence was read on the Envision (Excitation at 485 nm and Emission at 535 nm; Perkin Elmer) or on the PheraSTAR (Excitation at 485 nm and Emission at 535 nm; BMG Labtech).
Data from USP7 Assays A and B were reported as percent inhibition (inh) compared with control wells based on the following equation: % inh=1−((FLU−AveLow)/(AveHigh−AveLow)) where FLU=measured Fluorescence (See Tables 6-10). AveLow=average Fluorescence of no enzyme control (n=16). AveHigh=average Fluorescence of DMSO control (n=16). […] Data is fitted using the Levenburg Marquardt algorithm.

Structure (SMILES) | IC50
Cc1ncc(C(=O)N2CCC(O)(Cn3cnc4c(cnn4-c4ccc(OC5CCC(F)(F)CC5)cc4)c3=O)CC2)o1 [Compound I-1134] | 0.2 to 1 µM
CC1(C(=O)N2CCC(O)(Cn3cnc4c(cnn4-c4cccc(N5CCC(F)CC5)c4)c3=O)CC2)CC1 [Compound I-1561] | < 0.2 µM
CC1(C(=O)N2CCC(O)(Cn3cnc4c(cnn4-c4ccc(N5CC(C(C)(C)O)C5)cc4)c3=O)CC2)CC1 [Compound I-1674] | 0.2 to 1 µM
O=C(c1ccc(F)cc1)N1CCC(O)(Cn2cnc3c(cnn3-c3ccc(-n4ncc5c4CCOC5)cc3)c2=O)CC1 [Compound I-820] | 0.2 to 1 µM
O=C(c1cnc(C2CC2)o1)N1CCC(O)(Cn2cnc3c(ccn3-c3ccc(F)cc3)c2=O)CC1 [Compound I-849] | < 0.2 µM
CN1CC(O)(COc2ccc(-n3ncc4c(=O)n(CC5(O)CCN(C(=O)c6ccc(F)cc6)CC5)cnc43)cc2)C1 [Compound I-816] | < 0.2 µM
O=C(C1CCC(n2cccn2)CC1)N1CCC(O)(Cn2cnc3c(cnn3-c3ccc(F)cc3)c2=O)CC1 (centres unmarked) [Compound I-548] | 1 to 10 µM
O=C(c1cnn(C2CC2)c1)N1CCC(O)(Cn2cnc3c(ccn3-c3ccc(F)cc3)c2=O)CC1 [Compound I-1079] | 0.2 to 1 µM
O=C(C1CCC(Oc2ccccn2)CC1)N1CCC(O)(Cn2cnc3c(cnn3-c3ccc(F)cc3)c2=O)CC1 (centres unmarked) [Compound I-545] | 0.2 to 1 µM
O=C(C[C@H](C(F)F)n1ccc(F)n1)N1CCC(O)(Cn2cnc3c(cnn3-c3cccc(N4CCOCC4)c3)c2=O)CC1 [Compound I-788] | 1 to 10 µM
Cc1ncc(C(=O)N2CCC(O)(Cn3cnc4c(cnn4-c4ccc(-n5cc(C(F)(F)F)cn5)cc4)c3=O)CC2)o1 [Compound I-1688] | < 0.2 µM
O=C(c1ccc(F)cc1)N1CCC(O)(Cn2cnc3c(cnn3-c3ccc(N4CC[C@H](O)C4)cc3)c2=O)CC1 [Compound I-1434] | 1 to 10 µM
CC(=O)NC1CCC(C(=O)N2CCC(O)(Cn3cnc4c(cnn4-c4ccc(F)cc4)c3=O)CC2)CC1 (centres unmarked) [Compound I-924] | 1 to 10 µM
CC1(C(=O)N2CCC(O)(Cn3cnc4c(cnn4-c4cccc(N5CCC(C#N)CC5)c4)c3=O)CC2)CC1 [Compound I-1751] | 0.2 to 1 µM
O=c1c2cnn(-c3ccccc3)c2ncn1CC1(O)CCN(C(=O)[C@H]2CC[C@H](Nc3cccnc3F)CC2)CC1 [Compound I-1039b, Anti-5-((1-(4-((2-fluoropyridin-3-yl)amino)cyclohexane-1-carbonyl)-4-hydroxypiperidin-4-yl)methyl)-1-phenyl-1,5-dihydro-4H-pyrazolo[3,4-d]pyrimidin-4-one] | < 0.2 µM
Cn1nccc1NC1CCC(C(=O)N2CCC(O)(Cn3cnc4c(cnn4-c4ccc(F)cc4)c3=O)CC2)CC1 (centres unmarked) [Compound I-763] | 1 to 10 µM

Structure (SMILES) | IC50
O=C(C1CCC(Oc2ccccn2)CC1)N1CCC(O)(Cn2cnc3c(cnn3-c3ccc(CO)cc3)c2=O)CC1 (centres unmarked) [Compound I-853] | 0.2 to 1 µM
N#Cc1ccc(OC2CCC(C(=O)N3CCC(O)(Cn4cnc5c(cnn5-c5ccc(F)cc5)c4=O)CC3)CC2)nc1 (centres unmarked) [Compound I-1014] | 0.2 to 1 µM
C=CC(=O)N1CCC1C(=O)N1CCC(O)(Cn2cnc3c(cnn3-c3cccc(N4CCN(C)CC4)c3)c2=O)CC1 (centres unmarked) [Compound I-831] | < 0.2 µM
O=C(C[C@H](C(F)F)n1cccn1)N1CCC(O)(Cn2cnc3c(cnn3-c3ccc(N4CCCCC4)cc3)c2=O)CC1 [Compound I-821] | 1 to 10 µM
O=C(c1ccc(N2CCN3CCCC3C2)cc1)N1CCC(O)(Cn2cnc3c(cnn3-c3ccc(F)cc3)c2=O)CC1 (centres unmarked) [Compound I-487] | 1 to 10 µM
CN1CC(Oc2ccc(-n3ncc4c(=O)n(CC5(O)CCN(C(=O)c6ccc(F)cc6)CC5)cnc43)cc2)C1 [Compound I-692] | < 0.2 µM
CC1(C(=O)N2CCC(O)(Cn3cnc4c(cnn4-c4ccc(N5CC6CC(C5)O6)cc4)c3=O)CC2)CC1 [Compound I-1643] | 0.2 to 1 µM
O=C(C1CC1)N1CCC(O)(Cn2cnc3c(cnn3-c3ccc(N4CCCc5ncccc54)cc3)c2=O)CC1 [Compound I-1727] | 1 to 10 µM
O=C(C1CCC(Oc2ccc(F)cn2)CC1)N1CCC(O)(Cn2cnc3c(cnn3-c3ccccc3)c2=O)CC1 (centres unmarked) [Compound I-744] | 0.2 to 1 µM
CC1(C(=O)N2CCC(O)(Cn3cnc4c(cnn4-c4cccc(N5CC(O)C5)c4)c3=O)CC2)CC1 [Compound I-1678] | 0.2 to 1 µM
O=C(N1CCC(O)(Cn2cnc3c(cnn3-c3ccc(F)cc3)c2=O)CC1)N1CCc2cn[nH]c2C1 [Compound I-761] | < 0.2 µM
Cc1ccc(-n2ncc3c(=O)n(CC4(O)CCN(C(=O)C[C@H](C(F)F)n5ccc(F)n5)CC4)cnc32)cc1 [Compound I-796] | < 0.2 µM
CC1(C(=O)N2CCC(O)(Cn3cnc4c(cnn4-c4cccc(N5CC(N6CCOCC6)C5)c4)c3=O)CC2)CC1 [Compound I-1637] | 0.2 to 1 µM
CN1CCN(c2ccc(-n3ncc4c(=O)n(CC5(O)CCN(C(=O)C[C@H](C(F)F)n6cccn6)CC5)cnc43)cc2)CC1 [Compound I-826] | < 0.2 µM
Cc1ncc(C(=O)N2CCC(O)(Cn3cnc4c(cnn4-c4ccc(C5CCC5)cc4)c3=O)CC2)o1 [Compound I-846] | 0.2 to 1 µM

Same assay, conditions: USP7 assay A and B (table does not say which assay per compound); read-out: USP7_IC50

Structure (SMILES) | IC50
O=C(c1ccc(-n2ccnn2)cc1)N1CCC(O)(Cn2cnc3c(cnn3-c3ccc(F)cc3)c2=O)CC1 [Compound I-1535] | 0.2 to 1 µM
C[C@H](CC(=O)N1CCC(O)(Cn2cnc3c(cnn3-c3ccc(-c4ccc(F)cc4)cc3)c2=O)CC1)n1cccn1 [Compound I-653] | 0.2 to 1 µM
O=C(c1ccccc1)N1CC[C@](O)(Cn2cnc3c(cnn3-c3ccccc3)c2=O)[C@H](F)C1 [Compound I-469] | 1 to 10 µM
CN1CCN(c2ccc(-n3ncc4c(=O)n(CC5(O)CCN(C(=O)C6CC6)CC5)cnc43)cc2Cl)CC1 [Compound I-701] | 1 to 10 µM
O=C(c1ccccc1)N1CCC(O)(Cn2cnc3c(cnn3-c3ccc(F)cc3)c2=O)CC1 [Compound I-266] | 1 to 10 µM
CC1(O)CCN(Cc2cccc(C(=O)N3CCC(O)(Cn4cnc5c(cnn5-c5ccc(F)cc5)c4=O)CC3)c2)C1 (centres unmarked) [Compound I-601] | > 10 µM
CN(C)C1CCN(c2cccc(-n3ncc4c(=O)n(CC5(O)CCN(C(=O)C6CC6)CC5)cnc43)c2)CC1 [Compound I-1209] | 0.2 to 1 µM
O=C(c1ccc(OC(F)F)cc1)N1CCC(O)(Cn2cnc3c(cnn3-c3ccc(CO)cc3)c2=O)CC1 [Compound I-851] | 0.2 to 1 µM
O=C(C1CC1)N1CCC(O)(Cn2cnc3c(cnn3-c3cccc(NCc4cccnc4)c3)c2=O)CC1 [Compound I-1158] | 1 to 10 µM
O=C(c1cccc(CN2CCCC2)c1)N1CCC(O)(Cn2cnc3c(cnn3-c3ccc(Cl)cc3)c2=O)CC1 [Compound I-1127] | 1 to 10 µM
Nc1ccc(Cl)cc1C(=O)N1CCC(O)(Cn2cnc3c(cnn3-c3ccccc3)c2=O)CC1 [Compound I-233] | 0.2 to 1 µM
O=C(c1cnc(C2CC2)o1)N1CCC(O)(Cn2cnc3c(cnn3-c3ccc(C(F)(F)F)cc3)c2=O)CC1 [Compound I-1437] | 1 to 10 µM
O=C(C1CC1)N1CCC(O)(Cn2cnc3c(cnn3-c3ccc(N4CCC5(CCOCC5)C4)cc3)c2=O)CC1 [Compound I-1216] | 1 to 10 µM
O=C(c1ccc(F)cc1)N1CCC(O)(Cn2cnc3c(cnn3-c3cccc(OCc4ccccc4)c3)c2=O)CC1 [Compound I-1285] | 1 to 10 µM
O=C(Nc1ccc(-n2ncc3c(=O)n(CC4(O)CCN(C(=O)C5CC5)CC4)cnc32)cc1)Nc1cccnc1 [Compound I-1448] | 1 to 10 µM
O=C(c1cnc(C2CC2)o1)N1CCC(O)(Cn2cnc3c(cnn3-c3ccc(-c4ccccc4)cc3)c2=O)CC1 [Compound I-1659] | 0.2 to 1 µM
CS(=O)(=O)Nc1ccc(C(=O)N2CCC(O)(Cn3cnc4c(cnn4-c4ccccc4)c3=O)CC2)cc1 [Compound I-164] | 0.2 to 1 µM
O=C(C[C@@H](C(F)F)n1cccn1)N1CCC(O)(Cn2cnc3c(cnn3-c3ccc(F)cc3)c2=O)CC1 [Compound I-518] | < 0.2 µM
C#CC(=O)NC1CC(C(=O)N2CCC(O)(Cn3cnc4c(cnn4-c4ccc(F)cc4)c3=O)CC2)C1 (centres unmarked) [Compound I-950] | 1 to 10 µM
CC(=O)Nc1cccc(C(=O)N2CCC(O)(Cn3cnc4c(cnn4-c4ccccc4)c3=O)CC2)c1 [Compound I-181] | 1 to 10 µM
O=C(c1ccc(Oc2ccccc2)cc1)N1CCC(O)(Cn2cnc3c(cnn3-c3ccc(F)cc3)c2=O)CC1 [Compound I-66] | 0.2 to 1 µM
O=C(C1CC1)N1CCC(O)(Cn2cnc3c(cnn3-c3ccc(-c4ccccc4)cc3)c2=O)CC1 [Compound I-276] | 1 to 10 µM
O=C(c1ccccc1)N1CCC(O)(Cn2cnc3c(cnn3-c3cccc(O)c3)c2=O)CC1 [Compound I-19] | 1 to 10 µM
C[C@H](CC(=O)N1CCC(O)(Cn2cnc3c(cnn3-c3ccccc3)c2=O)CC1)n1cccn1 [Compound I-175] | < 0.2 µM
CC(CC(=O)N1CCC(O)(Cn2cnc3c(cnn3-c3ccc(F)cc3)c2=O)CC1)N1CC2CCCC2C1 (centres unmarked) [Compound I-523] | > 10 µM
O=C(C1CC1)N1CCC(O)(Cn2cnc3c(cnn3-c3ccc(-c4cccc(F)c4)cc3)c2=O)CC1 [Compound I-330] | 1 to 10 µM
O=C(c1ccc(F)cc1F)N1CCC(O)(Cn2cnc3c(cnn3-c3ccccc3)c2=O)CC1 [Compound I-209] | 1 to 10 µM
O=C(C1CCCCC1)N1CCC(O)(Cn2cnc3c(cnn3-c3ccccc3)c2=O)CC1 [Compound I-189] | 0.2 to 1 µM
